What was measured:
[1] = Particle size of drug suspensions before and after focused acoustic processing (Malvern Mastersizer 2000 / Zetasizer Nano ZS-90); format: physicochemical
Source text: Particle size distributions of mixtures and/or nanoformulations described herein may be measured using dynamic laser light scattering, also called Photon correlation spectroscopy (e.g., using Malvern Zetasizer-S, Zetasizer Nano ZS-90 or Mastersizer 2000 instruments; Malvern Instruments Inc.; Southborough Mass.). The Malvern Zetasizer-S instrument was used to estimate average particle sizes with a 4 mW He—Ne laser operating at a wavelength of 633 nm and an avalanche photodiode detector (APD). The average size of particles in a mixture may be estimated as the mean hydrodynamic size. The particle size distribution may be estimated according to polydispersity index (PDI), which is known in the art as a measure of the tightness of a distribution. The average size of particles and the PDI of mixtures and nanoformulations discussed herein are calculated according to the International Standard on dynamic light scattering, ISO 13321.
Suspension mixtures were prepared in water (deionized and purified by a Barnstead water purification system), methyl cellulose (from Sigma Aldrich) and sodium lauryl sulfate (from Fisher Scientific) for Ibuprofen (from Spectrum Chemicals), Cinnarizine (from Spectrum Chemicals), Indomethacin (from Spectrum Chemicals) and Griseofulvin (from MP Bio). The initial particle sizes of these suspension mixtures was reduced subject to focused acoustic processing using a Covaris SF220 High Performance Formulation Processing System under 150 Watts of power. Particle size distributions were measured using a Malvern Zetasizer Nano ZS-90 in the nanometer particle size range and a Malvern Mastersizer 2000 in the micron particle size range.
Suspension mixtures included water, 0.5% methyl cellulose and 0.1% sodium lauryl sulfate for Ibuprofen, Cinnarizine, Indomethacin and Griseofulvin at 15 mg/mL for batches of 2 mL, 12 mL and 18 mL. The 2 mL, 12 mL and 18 mL batches were subject to focused acoustic processing for 5 minutes, 5 minutes and 10 minutes, respectively. […] The image 400 prior to exposure to the focused acoustics depicts particles that are substantially larger (e.g., 15-20×) than corresponding particles shown in the image 402 after treatment of the particles to the focused acoustics. Particle size results for each of the four compounds are provided in Table 1 (particle sizes are noted as d90 unless specified otherwise).
The concentration of Ibuprofen was then varied in respective suspensions at fixed volumes of 2 mL, 12 mL and 18 mL. […] For instance, after 10 minutes of focused acoustic processing, the percent difference of the greatest variation in d90 particle size (i.e., 39.53-34.04=5.49) between concentrations (i.e., for 1 mg/mL, 15 mg/mL and 100 mg/mL) as compared to the initial d90 particle size (i.e., 203.67) is less than 3%.
Suspension mixtures included water, 0.025% methyl cellulose and 0.1% sodium lauryl sulfate for Ibuprofen, Cinnarizine, Indomethacin and Griseofulvin at 5 mg/mL for 2 mL batches. Each batch was subject to focused acoustic processing for 15 minutes and 30 minutes, respectively. Table 3 lists the average particle size results for each of the four compounds. Within 15 minutes, nano-suspensions were generated with an average particle size ranging between 100 nm and 280 nm for each of the mixtures. Within 30 minutes, an average particle size range of between 20 nm and 97 nm was achieved.
Using a scale-up system and without changing the mechanical attributes of the particle size reduction process, the Ibuprofen suspension mixture was increased to 250 mL. The flow rate was set to 30 mL/min. […] Suspension aliquots were analyzed by HPLC using a stability-indicating method as a guide. […] Through 60 minutes of focused acoustic processing, the particle size distribution of the suspension was measured to have a relative standard deviation of 0.38%. […]

[2] = Homogeneity and chemical stability of 250 mL Ibuprofen suspension (sampling at different depths, HPLC); format: physicochemical
Protocol: Using a scale-up system and without changing the mechanical attributes of the particle size reduction process, the Ibuprofen suspension mixture was increased to 250 mL. The flow rate was set to 30 mL/min. […] Suspension aliquots were analyzed by HPLC using a stability-indicating method as a guide. […] Through 60 minutes of focused acoustic processing, the particle size distribution of the suspension was measured to have a relative standard deviation of 0.38%. […] FIG. 7 illustrates the results of such size reduction over time for d90 particle size 410, d50 particle size 412 and d10 particle size 414.

[3] = 15 mg/mL suspension, 2 mL, 5 min
[4] = 15 mg/mL suspension, 12 mL, 5 min
[5] = 15 mg/mL suspension, 18 mL, 10 min
[6] = 15 mg/mL suspension, Initial (before focused acoustic processing)
[7] = nano-suspension, 5 mg/mL, 2 mL batch, 15 min
[8] = nano-suspension, 5 mg/mL, 2 mL batch, 30 min
[9] = nano-suspension, 5 mg/mL, 2 mL batch, Initial
[10] = 1, 15 and 100 mg/mL, after 10 minutes of processing

SMILES: C(=C\c1ccccc1)/CN1CCN(C(c2ccccc2)c2ccccc2)CC1 [Cinnarizine]
- Particle size (d90) [1, 3]: 37.29 microns
- Particle size (d90) [1, 4]: 41.73 microns
- Particle size (d90) [1, 5]: 43.00 microns
- Particle size (d90) [1, 6]: 149.17 microns
- Average particle size ([1]; 250 mL scale-up, 1 hour of processing): 1 micron
- Average particle size ([1]; 250 mL scale-up, about 9 hours): approximately 200 nm
- Average particle size ([1]; 250 mL scale-up, starting): approximately 200 microns
- Average particle size [1, 7]: 280 nm
- Average particle size [1, 8]: 56.85 nm
- Average particle size [1, 9]: 149.17 microns

SMILES: COC1=CC(=O)C[C@@H](C)[C@]12Oc1c(Cl)c(OC)cc(OC)c1C2=O [Griseofulvin]
- Particle size (d90) [1, 3]: 16.86 microns
- Particle size (d90) [1, 4]: 31.45 microns
- Particle size (d90) [1, 5]: 31.01 microns
- Particle size (d90) [1, 6]: 44.45 microns
- Average particle size [1, 7]: 100 nm
- Average particle size [1, 8]: 90 nm
- Average particle size [1, 9]: 44.45 microns

SMILES: CC(C)Cc1ccc(C(C)C(=O)O)cc1 (stereo not drawn) [Ibuprofen]
- % of particles below 20 microns [1, 3]: (100% of particles
- Particle size (d90) [1, 3]: 12.55 microns
- % of particles below 40 microns [1, 4]: (97% of particles
- Particle size (d90) [1, 4]: 33.35 microns
- % of particles below 40 microns [1, 5]: (97% of particles
- Particle size (d90) [1, 5]: 39.53 microns
- % of particles above 40 microns ([1]; 15 mg/mL suspension, Initial): (97% of particles
- Particle size (d90) [1, 6]: 203.67 microns
- Particles prior to focused acoustics larger than particles after treatment (micrographs, FIG. 6) ([1]; 15 mg/mL, 50× magnification): 15-20 ×
- Greatest variation in d90 particle size between concentrations [1, 10]: 5.49
- Percent difference of greatest variation in d90 between concentrations compared to initial d90 [1, 10]: less than 3%
- Percentage of particles below 40 microns ([1]; 250 mL scale-up, 15 min): 90%
- d10 ([1]; 250 mL scale-up, 15 min): 6.805 microns
- d50 ([1]; 250 mL scale-up, 15 min): 21.701 microns
- d90 ([1]; 250 mL scale-up, 15 min): 39.726 microns
- Percentage of particles below 40 microns ([1]; 250 mL scale-up, 30 min): 93.57%
- d10 ([1]; 250 mL scale-up, 30 min): 6.023 microns
- d50 ([1]; 250 mL scale-up, 30 min): 19.055 microns
- d90 ([1]; 250 mL scale-up, 30 min): 36.328 microns
- Percentage of particles below 40 microns ([1]; 250 mL scale-up, 45 min): 98.31%
- d10 ([1]; 250 mL scale-up, 45 min): 3.583 microns
- d50 ([1]; 250 mL scale-up, 45 min): 16.167 microns
- d90 ([1]; 250 mL scale-up, 45 min): 31.091 microns
- Percentage of particles below 40 microns ([1]; 250 mL scale-up, 60 min): 98.39%
- d10 ([1]; 250 mL scale-up, 60 min): 3.351 microns
- d50 ([1]; 250 mL scale-up, 60 min): 14.843 microns
- d90 ([1]; 250 mL scale-up, 60 min): 28.005 microns
- Percentage of particles below 40 microns ([1]; 250 mL scale-up, Initial): 5%
- d10 ([1]; 250 mL scale-up, Initial): 50 microns
- d50 ([1]; 250 mL scale-up, Initial): 97.834 microns
- d90 ([1]; 250 mL scale-up, Initial): 203.67 microns
- Particle size (d90) ([1]; Table 2, 1 mg/mL, 2 mL, 5 min): 12.55 microns
- Particle size (d90) ([1]; Table 2, 1 mg/mL, 12 mL, 5 min): 33.35 microns
- Particle size (d90) ([1]; Table 2, 1 mg/mL, 18 mL, 10 min): 39.53 microns
- Particle size (d90) ([1]; Table 2, 1 mg/mL, Initial): 203.67 microns
- Particle size (d90) ([1]; Table 2, 15 mg/mL, 2 mL, 5 min): 19.03 microns
- Particle size (d90) ([1]; Table 2, 15 mg/mL, 12 mL, 5 min): 34.88 microns
- Particle size (d90) ([1]; Table 2, 15 mg/mL, 18 mL, 10 min): 34.04 microns
- Particle size (d90) ([1]; Table 2, 15 mg/mL, Initial): 203.67 microns
- Particle size (d90) ([1]; Table 2, 100 mg/mL, 2 mL, 5 min): 29.54 microns
- Particle size (d90) ([1]; Table 2, 100 mg/mL, 12 mL, 5 min): 37.78 microns
- Particle size (d90) ([1]; Table 2, 100 mg/mL, 18 mL, 10 min): 35.53 microns
- Particle size (d90) ([1]; Table 2, 100 mg/mL, Initial): 203.67 microns
- Average particle size [1, 7]: 110 nm
- Average particle size [1, 8]: 97 nm
- Average particle size [1, 9]: 203.67 microns
- Homogeneity of suspension ([2]; first measured time point of 15 minutes): homogeneous
- Chemical stability (impurity growth, HPLC) ([2]; over 60 minutes of processing): no impurity growth

SMILES: COc1ccc2c(c1)c(CC(=O)O)c(C)n2C(=O)c1ccc(Cl)cc1 [Indomethacin]
- Particle size (d90) [1, 3]: 20.88 microns
- Particle size (d90) [1, 4]: 38.32 microns
- Particle size (d90) [1, 5]: 28.73 microns
- Particle size (d90) [1, 6]: 239.88 microns
- Average particle size ([1]; in water, after exposure to focused acoustic energy (FIG. 12)): approximately 5 microns
- Average particle size [1, 7]: 127.4 nm
- Average particle size [1, 8]: 20 nm
- Average particle size [1, 9]: 239.88 microns

SMILES: O=c1c(O)c(-c2ccc(O)c(O)c2)oc2cc(O)cc(O)c12 [Quercetin]
- Average particle size ([1]; 250 mL in water, no surfactant, 24 degrees C., in under 80 minutes): less than 10 microns
- Average particle size ([1]; 250 mL in water, no surfactant, before processing): over 200 microns
